Experiments:
PDZ2 of PSD-95 [1] = biological target: T1, PDZ2 of PSD-95 (Homo sapiens, UniProt P78352); settings: PDZ domains from PSD-95; cited from earlier work
PICK1 PDZ domain [2] = biological target: T2, PICK1 PDZ domain (Rattus norvegicus, UniProt Q9EP80); settings: cited from earlier work
PICK1 = settings: biochemical studies; cited from earlier work
hippocampal CA1 neurons = settings: cited from earlier work
PDZ3 of PSD-95 [3] = biological target: T3, PDZ3 of PSD-95 (Homo sapiens, UniProt P78352); settings: PDZ domains from PSD-95; cited from earlier work
PICK1 PDZ domain [4] = biological target: T2, PICK1 PDZ domain; assay type: binding; settings: for affinity for PICK1 PDZ domain: at up to 500 µM concentrations (data not shown)
PDZ1 of PSD-95 [5] = biological target: T4, PDZ1 of PSD-95 (Homo sapiens, UniProt P78352); settings: PDZ domains from PSD-95; cited from earlier work
[6] = test system: AMPA receptor trafficking; settings: cited from earlier work
[7] = test system: PDZ4-5 of glutamate receptor interacting protein-1 (GRIP1); settings: PDZ4-5 of GRIP1; cited from earlier work
PDZ1 of PSD-95 [8] = biological target: T4, PDZ1 of PSD-95; assay: Fluorescence polarization assay, PSD-95 PDZ1; assay type: binding; settings: tested at 500 µM (data not shown)
PDZ2 of PSD-95 [9] = biological target: T1, PDZ2 of PSD-95; assay: Fluorescence polarization assay, PSD-95 PDZ2; assay type: binding; settings: tested at 500 µM (data not shown)
PDZ3 of PSD-95 [10] = biological target: T3, PDZ3 of PSD-95; assay: Fluorescence polarization assay, PSD-95 PDZ3; assay type: binding; settings: tested at 500 µM (data not shown)

T2 sequence (Q9EP80 whole entry, the tested form may be a part): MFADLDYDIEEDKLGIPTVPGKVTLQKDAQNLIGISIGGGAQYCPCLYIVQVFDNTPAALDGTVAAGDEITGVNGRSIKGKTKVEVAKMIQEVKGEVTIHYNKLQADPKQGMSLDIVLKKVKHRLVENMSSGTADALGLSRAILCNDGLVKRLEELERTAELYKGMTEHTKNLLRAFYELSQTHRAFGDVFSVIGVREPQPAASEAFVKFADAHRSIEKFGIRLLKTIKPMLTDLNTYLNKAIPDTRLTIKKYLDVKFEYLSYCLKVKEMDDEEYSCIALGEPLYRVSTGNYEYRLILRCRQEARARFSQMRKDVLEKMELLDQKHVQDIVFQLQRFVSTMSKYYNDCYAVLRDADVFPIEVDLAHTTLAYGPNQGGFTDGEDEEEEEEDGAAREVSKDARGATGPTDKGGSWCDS

Ki (PICK1 PDZ domain [4]) [µM]	affinity towards PDZ1 of PSD-95 (PDZ1 of PSD-95 [8])	affinity towards PDZ2 of PSD-95 (PDZ2 of PSD-95 [9])	affinity towards PDZ3 of PSD-95 (PDZ3 of PSD-95 [10])	affinity for PICK1 PDZ domain (PICK1 PDZ domain [4])	Structure (SMILES)	affinity for PDZ2 of PSD-95 (PDZ2 of PSD-95 [1])	binding to PICK1 PDZ domain in living cells (PICK1 PDZ domain [2]; intracellular FRET)	membrane permeability (PICK1 PDZ domain [2]; not told)	reversibility of binding to PICK1 (PICK1)	effect on induction of LTD and LTP (hippocampal CA1 neurons)	affinity for PDZ3 of PSD-95 (PDZ3 of PSD-95 [3])	affinity for PDZ1 of PSD-95 (PDZ1 of PSD-95 [5])	effect on AMPA receptor trafficking [6]	affinity for PDZ domains from GRIP1 [7]
9.6 ± 0.22	–	–	–	–	CCOC(=O)NC(=O)/C(C#N)=C/c1ccc(Cl)c(Cl)c1 [Compound 1, (E)-ethyl 2-cyano-3-(3,4-dichlorophenyl)acryloylcarbamate]	no affinity	binds the PICK1 PDZ domain in living cells	membrane permeable	binds reversibly	inhibited induction of LTD and LTP	no affinity	no affinity	affected AMPA receptor trafficking	no affinity
–	none of the compounds showed affinity	none of the compounds showed affinity	none of the compounds showed affinity	devoid of affinity	CCOC(=O)NC(=O)C(C#N)Cc1ccc(Cl)c(Cl)c1 (centres unmarked) [Compound 3, Ethyl 2-cyano-3-(3,4-dichlorophenyl)propanoylcarbamate]	–	–	–	–	–	–	–	–	–
–	none of the compounds showed affinity	none of the compounds showed affinity	none of the compounds showed affinity	devoid of affinity	CCOC(=O)NC(=O)/C=C/c1ccc(Cl)c(Cl)c1 [Compound 5, (E)-ethyl 3-(3,4-dichlorophenyl)acryloylcarbamate]	–	–	–	–	–	–	–	–	–
–	none of the compounds showed affinity	none of the compounds showed affinity	none of the compounds showed affinity	devoid of affinity	CCCCNC(=O)/C(C#N)=C/c1ccc(Cl)c(Cl)c1 [Compound 8, (E)-N-butyl-2-cyano-3-(3,4-dichlorophenyl)acrylamide]	–	–	–	–	–	–	–	–	–
–	none of the compounds showed affinity	none of the compounds showed affinity	none of the compounds showed affinity	devoid of affinity	CCOC(=O)NC/C(C#N)=C/c1ccc(Cl)c(Cl)c1 [Compound 14, (Z)-ethyl 2-cyano-3-(3,4-dichlorophenyl)allylcarbamate]	–	–	–	–	–	–	–	–	–
